# Assay results taken from US9242984B2, “Pyrazolyl derivatives as Syk inhibitors” (Merck Sharp & Dohme Corp., priority 2012, dated 2016).
# Molecular target: T1, recombinant human Syk (GST-hSyk fusion protein) (Homo sapiens, UniProt P43405)
# T1 construct: purchased Carna Biosciences 08-176
# Assay: Homogeneous Time-Resolved Fluorescence (HTRF) assay for the recombinant human Syk enzyme
# Assay type: biochemical
# Conditions: 10-dose titration, 25 μM ATP; read-out: rhSYK IC50
# Outline: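 GST-hSyk (5 pM) preincubated 10 min with compound (0.1% DMSO) in 15 mM Tris-HCl pH 7.5, 2 mM DTT; reaction started with 250 nM biotinylated peptide, 5 mM Mg, 25 μM ATP, 45 min, room temperature. EDTA quench, Eu-anti-phosphotyrosine/SA-APC HTRF read after 30 min; IC50 from 10-dose titration (10 μM–0.508 nM), four-parameter fit.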
row,IC50 [nM],Compound
1,2,"Cc1cc(Nc2nccc(C(F)F)n2)cc(-c2cnn(CC3(O)CCC3)c2)c1 [Example 29.1, 1-((4-(3-((4-(Difluoromethyl)pyrimidin-2-yl)amino)-5-methylphenyl)-1H-pyrazol-1-yl)methyl)cyclobutanol]"
2,10.1,"Cc1cc(Nc2nccc(C(F)(F)F)n2)cc(-c2cnn(C3CCNC(=O)CC3)c2)c1 (single isomer, unassigned) [14.1 (enantiomer 2)]"
3,61,"Cc1cc(Nc2nccc(C(F)(F)F)n2)cc(-n2cc(CCC(=O)O)cn2)c1 [Example 19.1, 3-(1-(3-methyl-5-((4-(trifluoromethyl)pyrimidin-2-yl)amino)phenyl)-1H-pyrazol-4-yl)propanoic acid]"

# Same assay, conditions: IC50 class; 10-dose titration, 25 μM ATP; read-out: rhSYK Activity
row,Compound,IC50 [nM]
1,"Cc1cc(Nc2nccc(C(F)(F)F)n2)cc(-c2cnn(CC(=O)N3CCC3)c2)c1 [Example 3.26, N-{3-[1-(2-azetidin-1-yl-2-oxoethyl)-1H-pyrazol-4-yl]-5-methylphenyl}-4-(trifluoromethyl)pyrimidin-2-amine]",≤ 100
2,"Cc1cc(Nc2nccc(C(C)(C)C)n2)cc(-c2cnn(C[C@H](O)C(N)=O)c2)c1 [Example 6.7, (2S)-3-(4-{3-[(4-tert-butyl-pyrimidin-2-yl)amino]-5-methylphenyl}-1H-pyrazol-1-yl)-2-hydroxy-propanamide]",≤ 100
3,"Cc1cc(Nc2nccc(C(F)F)n2)cc(-c2cnn(CC3(O)CCS(=O)(=O)CC3)c2)c1 [Example 5.42, 4-{[4-(3-{[4-(difluoromethyl)pyrimidin-2-yl]amino}-5-methylphenyl)-1H-pyrazol-1-yl]methyl}tetrahydro-2H-thiopyran-4-ol 1,1-dioxide]",≤ 100
4,"Cc1cc(Nc2cc(C(F)F)ccn2)nc(-c2cnn(C(C)C3CNC(=O)C3)c2)c1 (stereo not shown) [Example 1.62, 4-{1-[4-(6-{[4-(difluoromethyl)pyridin-2-yl]amino}-4-methylpyridin-2-yl)-1H-pyrazol-1-yl]ethyl}pyrrolidin-2-one]",≤ 100
5,"COc1nc(Nc2cc(C)cc(-c3cnn(CC4CNC(=O)O4)c3)c2)ncc1Cl (stereo not shown) [Example 2.28, 5-[(4-{3-[(5-chloro-4-methoxypyrimidin-2-yl)amino]-5-methylphenyl}-1H-pyrazol-1-yl)methyl]-1,3-oxazolidin-2-one]",≤ 100
6,"Cc1cc(Nc2nccc(C(F)(F)F)n2)cc(-c2cnn(CC(=O)N3[C@H](C)COC[C@@H]3C)c2)c1 [Example 3.14, N-[3-(1-{2-[(3r,5s)-3,5-dimethyl-morpholin-4-yl]-2-oxoethyl}-1H-pyrazol-4-yl)-5-methylphenyl]-4-(trifluoromethyl)-pyrimidin-2-amine]",100 to 1000
7,"Cc1cc(Nc2nccc(C(F)(F)F)n2)cc(-c2cnn(C[C@@H](O)C(N)=O)c2)c1 [Example 8.13, (2r)-2-hydroxy-3-[4-(3-methyl-5-{[4-(trifluorometh-yl)pyrimidin-2-yl]amino}phenyl)-1H-pyrazol-1-yl]propanamide]",≤ 100
8,"Cc1cc(Nc2nccc(C(F)(F)F)n2)cc(-c2cnn(CC3COCCO3)c2)c1 (stereo not shown) [Example 3.9, N-{3-[1-(1,4-dioxan-2-ylmethyl)-1H-pyrazol-4-yl]-5-methyl-phenyl}-4-(trifluoro-methyl)pyrimidin-2-amine]",≤ 100
9,"COC(=O)c1ccc(C(O)Cn2cc(-c3cc(C)cc(Nc4nccc(C(F)(F)F)n4)c3)cn2)cc1 (stereo not shown) [Example 3.54, methyl 4-{1-hydroxy-2-[4-(3-methyl-5-{[4-(trifluoromethyl)pyrimidin-2-yl]amino}phenyl)-1H-pyrazol-1-yl]ethyl}benzoate]",≤ 100
10,"Cc1cc(Nc2nccc(C(F)(F)F)n2)cc(-c2cnn(C[C@@H](O)C(=O)O)c2)n1 [Example 11.20, (2R)-2-hydroxy-3-[4-(6-methyl-4-{[4-(trifluoro-methyl)pyrimidin-2-yl]amino}pyridin-2-yl)-1H-pyrazol-1-yl]propanoic acid]",≤ 100
11,"Cc1cc(Nc2nccc(C(F)(F)F)n2)cc(-c2cnn(CC(=O)N3CCCC3)c2)c1 [Example 3.27, N-{3-methyl-5-[1-(2-oxo-2-pyrrolidin-1-ylethyl)-1H-pyrazol-4-yl]phenyl}-4-(trifluoromethyl)pyrimidin-2-amine]",≤ 100
12,"Cc1cc(Nc2nccc(C3CC3)n2)cc(-c2cnn(CC3CNC(=O)O3)c2)c1 (stereo not shown) [Example 2.33, 5-[(4-{3-[(4-cyclopropylpyrimidin-2-yl)amino]-5-methylphenyl}-1H-pyrazol-1-yl)methyl]-1,3-oxazolidin-2-one]",≤ 100
13,"Cc1cc(Nc2nccc(C(F)F)n2)cc(-c2cnn(CC3OC(=O)NC3=O)c2)c1 (stereo not shown) [Example 2.74, 5-{[4-(3-{[4-(difluoromethyl)pyrimidin-2-yl]amino}-5-methylphenyl)-1H-pyrazol-1-yl]methyl}-1,3-oxazolidine-2,4-dione]",≤ 100

# More lines, now with the values ahead:
row,IC50 [nM],Compound
1,≤ 100,"Cc1cc(Nc2nccc(C(F)(F)F)n2)cc(-c2cnn(CC3(O)CCCOC3)c2)c1 (stereo not shown) [Example 12.7, 3-{[4-(3-methyl-5-{[4-(trifluoromethyl)pyrimidin-2-yl]amino}phenyl)-1H-pyrazol-1-yl]methyl}-tetrahydro-2H-pyran-3-ol]"
2,≤ 100,"Cc1cc(Nc2cc(C(F)(F)F)ccn2)nc(-c2cnn(CC(C)(O)CO)c2)c1 (stereo not shown) [Example 21.5, 2-methyl-3-[4-(4-methyl-6-{[4-(trifluoromethyl)pyridin-2-yl]amino}pyridin-2-yl)-1H-pyrazol-1-yl]propane-1,2-diol]"
3,≤ 100,"COC(=O)NCCn1cc(-c2cc(C)cc(Nc3nccc(C(F)F)n3)c2)cn1 [Example 27.2, methyl {2-[4-(3-{[4-(difluoromethyl)pyrimidin-2-yl]amino}-5-methylphenyl)-1H-pyrazol-1-yl]ethyl}carbamate]"
4,≤ 100,"Cc1cc(Nc2nccc(C(F)(F)F)n2)cc(-n2cc(C(C)(O)c3ccc(C(=O)O)cc3)cn2)c1 (single isomer, unassigned) [Example 19.7, 4-{1-hydroxy-1-[1-(3-methyl-5-{[4-(trifluoromethyl)pyrimidin-2-yl]amino}phenyl)-1H-pyrazol-4-yl]ethyl}benzoic acid]"
5,≤ 100,"Cc1cc(Nc2nccc(C(F)(F)F)n2)cc(-n2cc(C(C)(O)[C@H]3CC[C@H](C(=O)O)CC3)cn2)c1 (stereo partly drawn) [Example 19.12, trans-4-{1-hydroxy-1-[1-(3 methyl-5-{[4-(trifluoromethyl)pyrimidin-2-yl]amino}phenyl)-1H-pyrazol-4-yl]ethyl}cyclohexanecarboxylic acid]"
6,≤ 100,"Cc1cc(Nc2cc(C(F)(F)F)ccn2)nc(-c2cnn(CC(C)(O)CC#N)c2)c1 (stereo not shown) [Example 20.4, 3-hydroxy-3-methyl-4-[4-(4-methyl-6-{[4-(trifluoromethyl)pyridin-2-yl]amino}pyridin-2-yl)-1H-pyrazol-1-yl]butanenitrile]"
7,≤ 100,"Cc1cc(Nc2nccc(C(F)(F)F)n2)cc(-c2cnn(CC3(O)CCC(C(=O)O)C(C)(C)C3)c2)c1 (stereo not shown) [Example 12.6, 4-hydroxy-2,2-dimethyl-4-{[4-(3-methyl-5-{[4-(trifluoromethyl)pyrimidin-2-yl]amino}phenyl)-1H-pyrazol-1-yl]methyl}-cyclohexanecarboxylic acid]"
8,≤ 100,"Cc1cc(Nc2nccc(C(F)(F)F)n2)cc(-n2cc(CCC(=O)O)cn2)c1 [Example 19.1, 3-(1-(3-methyl-5-((4-(trifluoromethyl)pyrimidin-2-yl)amino)phenyl)-1H-pyrazol-4-yl)propanoic acid]"
9,≤ 100,"Cc1cc(Nc2nccc(C(F)F)n2)cc(-c2cnn(CC(C)(C)NC(=O)NCC3CCOCC3)c2)c1 [Example 27.9, 1-{2-[4-(3-{[4-(difluoromethyl)pyrimidin-2-yl]amino}-5-methylphenyl)-1H-pyrazol-1-yl]-1,1-dimethylethyl}-3-(tetrahydro-2H-pyran-4-ylmethyl)urea]"
